BigSolDB 2.1

Clc1ccc2c(Cl)ccnc2c1
solubility (mole fraction) (in THF, 299.4 K): 0.0683 | solubility (mole fraction) (in THF, 303.2 K): 0.0701 | solubility (mole fraction) (in THF, 309.1 K): 0.0745 | solubility (mole fraction) (in THF, 313.3 K): 0.081 | solubility (mole fraction) (in THF, 318.1 K): 0.0887 | solubility (mole fraction) (in THF, 323.2 K): 0.1 | solubility (mole fraction) (in THF, 328.3 K): 0.119 | solubility (mole fraction) (in THF, 333.4 K): 0.14 | solubility (mole fraction) (in acetone, 299.2 K): 0.0591 | solubility (mole fraction) (in acetone, 303.2 K): 0.0614 | solubility (mole fraction) (in acetone, 309.1 K): 0.0658 | solubility (mole fraction) (in acetone, 313.3 K): 0.0725 | solubility (mole fraction) (in acetone, 318.1 K): 0.0818 | solubility (mole fraction) (in acetone, 323.2 K): 0.0954 | solubility (mole fraction) (in acetone, 328.3 K): 0.113 | solubility (mole fraction) (in acetonitrile, 299.8 K): 0.00603 | solubility (mole fraction) (in acetonitrile, 303.2 K): 0.00814 | solubility (mole fraction) (in acetonitrile, 308.1 K): 0.0127 | solubility (mole fraction) (in acetonitrile, 313.3 K): 0.0208 | solubility (mole fraction) (in acetonitrile, 318.1 K): 0.0307 | solubility (mole fraction) (in acetonitrile, 323.2 K): 0.0489 | solubility (mole fraction) (in acetonitrile, 328.3 K): 0.0788 | solubility (mole fraction) (in acetonitrile, 333.4 K): 0.13 | solubility (mole fraction) (in ethanol, 299.8 K): 0.0113 | solubility (mole fraction) (in ethanol, 303.2 K): 0.0145 | solubility (mole fraction) (in ethanol, 308.1 K): 0.0224 | solubility (mole fraction) (in ethanol, 313.3 K): 0.0364 | solubility (mole fraction) (in ethanol, 318.1 K): 0.0564 | solubility (mole fraction) (in ethanol, 323.2 K): 0.0886 | solubility (mole fraction) (in ethanol, 328.3 K): 0.135 | solubility (mole fraction) (in ethanol, 333.4 K): 0.208 | solubility (mole fraction) (in water, 298 K): 2.84e-05 | solubility (mole fraction) (in water, 303.3 K): 2.9e-05 | solubility (mole fraction) (in water, 308.2 K): 3.01e-05 | solubility (mole fraction) (in water, 313.1 K): 3.21e-05 | solubility (mole fraction) (in water, 318.3 K): 3.45e-05 | solubility (mole fraction) (in water, 323.3 K): 3.88e-05 | solubility (mole fraction) (in water, 327.7 K): 4.2e-05 | solubility (mole fraction) (in water, 333.3 K): 4.85e-05
